From ChEMBL document CHEMBL5584224, “Recent advances in c-Met-based dual inhibitors in the treatment of cancers” (Eur J Med Chem, 2024)

Tests used:
NCI-H3122 = assay: Antiproliferative activity against human NCI-H3122 cells assessed as reduction in cell viability incubated for 48 hrs by MTT assay; assay type: functional, cell-based; settings: NCI-H3122, 48 h
[1] = target: T1, Tyrosine-protein kinase receptor UFO (Homo sapiens, UniProt P30530); assay: Inhibition of AXL (unknown origin)
T1 sequence (P30530 whole entry): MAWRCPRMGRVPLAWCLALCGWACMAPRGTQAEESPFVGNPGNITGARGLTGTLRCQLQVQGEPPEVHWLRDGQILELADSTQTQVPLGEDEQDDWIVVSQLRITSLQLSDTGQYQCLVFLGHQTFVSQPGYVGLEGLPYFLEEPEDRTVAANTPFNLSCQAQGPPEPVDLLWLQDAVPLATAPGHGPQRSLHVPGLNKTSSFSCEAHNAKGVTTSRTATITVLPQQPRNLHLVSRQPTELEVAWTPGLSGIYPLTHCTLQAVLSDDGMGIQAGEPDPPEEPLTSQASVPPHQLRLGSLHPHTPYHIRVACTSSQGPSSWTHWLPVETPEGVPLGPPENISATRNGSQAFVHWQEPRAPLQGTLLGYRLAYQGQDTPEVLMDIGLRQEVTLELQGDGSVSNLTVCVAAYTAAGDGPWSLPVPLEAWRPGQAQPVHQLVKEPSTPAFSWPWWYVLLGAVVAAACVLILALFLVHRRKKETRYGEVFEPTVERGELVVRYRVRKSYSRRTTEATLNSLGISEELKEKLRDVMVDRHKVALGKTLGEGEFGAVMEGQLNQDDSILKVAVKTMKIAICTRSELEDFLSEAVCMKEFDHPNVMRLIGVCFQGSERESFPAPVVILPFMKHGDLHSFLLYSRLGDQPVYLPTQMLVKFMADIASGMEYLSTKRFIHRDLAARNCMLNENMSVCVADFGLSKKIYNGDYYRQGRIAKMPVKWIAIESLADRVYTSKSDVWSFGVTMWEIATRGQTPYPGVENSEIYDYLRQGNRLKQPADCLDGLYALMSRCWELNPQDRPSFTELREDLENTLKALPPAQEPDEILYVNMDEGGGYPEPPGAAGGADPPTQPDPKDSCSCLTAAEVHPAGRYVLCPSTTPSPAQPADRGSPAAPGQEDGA

Histone deacetylase 1 = Histone deacetylase 1 (Homo sapiens, UniProt Q13547); assay: Inhibition of HDAC1 (unknown origin) expressed in Sf9 cells using Z-Lys(Ac)-AMC as fluorogenic substrate preincubated for 60 mins followed by substrate addition and measured after 1 hr by fluorescence based microplate analysis
[2] = target: T2, Hepatocyte growth factor receptor (Homo sapiens, UniProt P08581); assay: Inhibition of c-Met (unknown origin) by mobility shift assay
HCC827 = assay: Antiproliferative activity against human HCC827 cells; assay type: functional, cell-based
[3] = target: T2, Hepatocyte growth factor receptor
Description: Inhibition of c-MET (unknown origin)

[4] = target: T3, ALK tyrosine kinase receptor (Homo sapiens, UniProt Q9UM73); assay: Inhibition of ALK (unknown origin)
A-431 = assay: Antiproliferative activity against human A-431 cells assessed as reduction in cell viability incubated for 24 hrs by MTT assay; assay type: functional, cell-based; settings: A-431, 24 h
NCI-H1975 = assay: Antiproliferative activity against human NCI-H1975 cells assessed as reduction in cell viability incubated for 48 hrs by MTT assay; assay type: functional, cell-based; settings: NCI-H1975, 48 h
KB 3-1 = assay: Antiproliferative activity against human KB-3-1 cells assessed as cell growth inhibition; assay type: functional, cell-based
[5] = target: Prostaglandin G/H synthase 2 (Homo sapiens, UniProt P35354); assay: Inhibition of COX-2 (unknown origin)
MCF7 = assay: Antiproliferative activity against human MCF7 cells assessed as reduction in cell viability incubated for 24 hrs by MTT assay; assay type: functional, cell-based; settings: MCF7, 24 h
HT-29 = assay: Antiproliferative activity against human HT-29 cells assessed as reduction in cell viability incubated for 24 hrs by MTT assay; assay type: functional, cell-based; settings: HT-29, 24 h
MDA-MB-231 [6] = assay: Antiproliferative activity against human MDA-MB-231 cells assessed as reduction in cell viability incubated for 24 hrs by MTT assay; assay type: functional, cell-based; settings: MDA-MB-231, 24 h
A549 [7] = assay: Antiproliferative activity against human A549 cells assessed as reduction in cell viability incubated for 24 hrs by MTT assay; assay type: functional, cell-based; settings: A549, 24 h
COLO 205 = assay: Antiproliferative activity against human COLO 205 cells assessed as reduction in cell viability incubated for 24 hrs by MTT assay; assay type: functional, cell-based; settings: COLO 205, 24 h
MDA-MB-231 [8] = assay: Antiproliferative activity against human MDA-MB-231 cells assessed as reduction in cell viability by MTT assay; assay type: functional, cell-based
BT-549 = assay: Antiproliferative activity against human BT-549 cells assessed as reduction in cell viability by MTT assay; assay type: functional, cell-based
4T1 = assay: Antiproliferative activity against mouse 4T1 cells assessed as reduction in cell viability by MTT assay; assay type: functional, cell-based
A549 [9] = assay: Antiproliferative activity against human A549 cells assessed as reduction in cell viability incubated for 72 hrs by MTT assay; assay type: functional, cell-based; settings: A549, 72 h
PC-9 = assay: Antiproliferative activity against human PC-9 cells assessed as reduction in cell growth incubated for 72 hrs by MTT assay; assay type: functional, cell-based; settings: PC-9, 72 h
[10] = target: T3, ALK tyrosine kinase receptor
Description: Inhibition of ALK (unknown origin) by TR-FRET assay

[11] = Inhibition of TrxR (unknown origin); set-up: species or system Homo sapiens

T3 sequence (Q9UM73 whole entry): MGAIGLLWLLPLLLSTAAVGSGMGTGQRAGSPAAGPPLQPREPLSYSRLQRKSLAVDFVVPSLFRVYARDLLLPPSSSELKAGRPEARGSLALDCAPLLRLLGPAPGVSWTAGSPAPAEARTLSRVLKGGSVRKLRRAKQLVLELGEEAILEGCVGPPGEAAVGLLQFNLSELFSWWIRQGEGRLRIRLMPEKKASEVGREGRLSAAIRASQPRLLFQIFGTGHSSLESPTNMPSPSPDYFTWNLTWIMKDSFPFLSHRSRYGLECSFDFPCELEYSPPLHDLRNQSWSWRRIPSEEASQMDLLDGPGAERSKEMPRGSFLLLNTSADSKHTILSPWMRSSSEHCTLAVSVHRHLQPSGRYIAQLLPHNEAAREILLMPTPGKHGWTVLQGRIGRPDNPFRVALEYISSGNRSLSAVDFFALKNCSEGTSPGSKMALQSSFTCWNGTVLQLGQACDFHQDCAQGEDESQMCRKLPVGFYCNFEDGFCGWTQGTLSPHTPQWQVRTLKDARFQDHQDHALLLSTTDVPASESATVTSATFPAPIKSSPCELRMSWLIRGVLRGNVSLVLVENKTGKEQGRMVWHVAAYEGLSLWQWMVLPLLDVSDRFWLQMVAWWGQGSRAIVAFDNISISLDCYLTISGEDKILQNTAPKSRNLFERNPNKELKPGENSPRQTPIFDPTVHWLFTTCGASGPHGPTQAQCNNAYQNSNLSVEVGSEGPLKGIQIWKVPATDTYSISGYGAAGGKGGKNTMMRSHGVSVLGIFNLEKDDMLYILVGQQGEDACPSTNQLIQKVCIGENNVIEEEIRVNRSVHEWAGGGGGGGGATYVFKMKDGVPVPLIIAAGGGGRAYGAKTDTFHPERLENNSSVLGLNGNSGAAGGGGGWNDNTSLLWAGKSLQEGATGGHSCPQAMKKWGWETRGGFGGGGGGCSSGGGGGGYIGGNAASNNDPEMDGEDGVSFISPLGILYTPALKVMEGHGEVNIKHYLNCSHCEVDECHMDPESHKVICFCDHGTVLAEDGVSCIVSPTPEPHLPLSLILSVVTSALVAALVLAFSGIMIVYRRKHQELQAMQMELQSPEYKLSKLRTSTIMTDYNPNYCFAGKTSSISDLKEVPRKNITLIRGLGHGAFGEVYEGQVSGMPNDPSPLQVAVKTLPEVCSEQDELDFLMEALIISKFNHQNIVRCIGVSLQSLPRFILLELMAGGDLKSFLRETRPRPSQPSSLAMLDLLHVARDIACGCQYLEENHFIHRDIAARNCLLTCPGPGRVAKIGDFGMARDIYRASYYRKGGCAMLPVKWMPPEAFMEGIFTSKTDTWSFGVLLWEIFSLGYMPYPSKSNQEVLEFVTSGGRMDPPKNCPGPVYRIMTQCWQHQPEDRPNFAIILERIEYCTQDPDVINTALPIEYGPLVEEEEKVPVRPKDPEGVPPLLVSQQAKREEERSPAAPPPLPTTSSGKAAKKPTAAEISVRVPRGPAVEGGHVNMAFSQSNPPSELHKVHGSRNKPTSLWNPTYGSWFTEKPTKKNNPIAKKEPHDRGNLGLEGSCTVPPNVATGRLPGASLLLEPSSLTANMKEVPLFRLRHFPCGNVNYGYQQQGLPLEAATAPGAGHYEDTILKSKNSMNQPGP
T2 sequence (P08581 whole entry): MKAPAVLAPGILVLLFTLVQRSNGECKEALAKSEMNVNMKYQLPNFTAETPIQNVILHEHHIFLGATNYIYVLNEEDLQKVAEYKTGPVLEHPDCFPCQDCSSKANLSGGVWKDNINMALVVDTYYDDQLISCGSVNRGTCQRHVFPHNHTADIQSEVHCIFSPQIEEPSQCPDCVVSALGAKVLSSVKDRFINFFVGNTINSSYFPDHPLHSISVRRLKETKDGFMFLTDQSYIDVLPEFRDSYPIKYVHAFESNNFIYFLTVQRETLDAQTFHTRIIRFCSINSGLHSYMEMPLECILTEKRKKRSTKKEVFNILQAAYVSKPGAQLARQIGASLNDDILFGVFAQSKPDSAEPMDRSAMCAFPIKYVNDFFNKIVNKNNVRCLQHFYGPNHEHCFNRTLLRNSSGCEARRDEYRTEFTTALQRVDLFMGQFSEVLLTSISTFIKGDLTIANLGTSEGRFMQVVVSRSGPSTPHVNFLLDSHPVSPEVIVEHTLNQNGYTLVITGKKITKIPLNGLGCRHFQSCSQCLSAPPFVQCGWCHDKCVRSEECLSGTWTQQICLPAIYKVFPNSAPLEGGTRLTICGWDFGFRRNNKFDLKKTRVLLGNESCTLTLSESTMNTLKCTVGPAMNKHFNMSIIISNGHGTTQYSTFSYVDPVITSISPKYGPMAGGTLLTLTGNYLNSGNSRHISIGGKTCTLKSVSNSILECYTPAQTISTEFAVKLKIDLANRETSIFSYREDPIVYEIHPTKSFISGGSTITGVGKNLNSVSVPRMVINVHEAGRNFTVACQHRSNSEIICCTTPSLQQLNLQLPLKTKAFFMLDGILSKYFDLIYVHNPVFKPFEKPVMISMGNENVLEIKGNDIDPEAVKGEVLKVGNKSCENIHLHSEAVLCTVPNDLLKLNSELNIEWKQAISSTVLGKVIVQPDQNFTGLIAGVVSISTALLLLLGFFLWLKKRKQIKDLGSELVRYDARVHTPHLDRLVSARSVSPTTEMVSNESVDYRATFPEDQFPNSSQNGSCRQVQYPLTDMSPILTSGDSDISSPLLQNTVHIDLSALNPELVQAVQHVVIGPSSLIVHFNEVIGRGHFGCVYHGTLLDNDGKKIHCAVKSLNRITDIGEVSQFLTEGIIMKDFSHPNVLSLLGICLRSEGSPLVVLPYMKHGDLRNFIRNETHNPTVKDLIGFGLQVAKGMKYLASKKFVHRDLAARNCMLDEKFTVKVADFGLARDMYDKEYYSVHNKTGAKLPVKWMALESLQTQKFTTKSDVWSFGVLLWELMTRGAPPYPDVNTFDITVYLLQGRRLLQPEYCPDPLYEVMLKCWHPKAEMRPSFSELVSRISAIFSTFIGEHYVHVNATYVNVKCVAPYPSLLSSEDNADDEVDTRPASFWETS
Prostaglandin G/H synthase 2, sequence (P35354 whole entry): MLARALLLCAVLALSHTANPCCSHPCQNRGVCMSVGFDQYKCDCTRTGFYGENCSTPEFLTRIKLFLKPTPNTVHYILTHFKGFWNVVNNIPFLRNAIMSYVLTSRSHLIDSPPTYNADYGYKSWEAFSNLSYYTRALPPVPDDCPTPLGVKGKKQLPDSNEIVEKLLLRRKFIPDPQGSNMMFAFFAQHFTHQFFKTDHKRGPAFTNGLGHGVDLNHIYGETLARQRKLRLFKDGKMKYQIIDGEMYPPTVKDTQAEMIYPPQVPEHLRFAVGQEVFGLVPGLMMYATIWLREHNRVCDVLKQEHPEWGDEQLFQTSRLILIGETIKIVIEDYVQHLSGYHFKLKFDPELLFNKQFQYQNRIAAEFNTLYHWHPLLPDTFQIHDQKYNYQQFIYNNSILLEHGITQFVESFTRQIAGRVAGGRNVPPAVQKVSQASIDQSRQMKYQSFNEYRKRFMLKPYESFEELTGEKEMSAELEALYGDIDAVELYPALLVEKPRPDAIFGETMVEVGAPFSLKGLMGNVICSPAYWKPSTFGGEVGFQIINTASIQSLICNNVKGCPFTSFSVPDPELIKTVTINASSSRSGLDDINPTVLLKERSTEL
Histone deacetylase 1, sequence (Q13547 whole entry): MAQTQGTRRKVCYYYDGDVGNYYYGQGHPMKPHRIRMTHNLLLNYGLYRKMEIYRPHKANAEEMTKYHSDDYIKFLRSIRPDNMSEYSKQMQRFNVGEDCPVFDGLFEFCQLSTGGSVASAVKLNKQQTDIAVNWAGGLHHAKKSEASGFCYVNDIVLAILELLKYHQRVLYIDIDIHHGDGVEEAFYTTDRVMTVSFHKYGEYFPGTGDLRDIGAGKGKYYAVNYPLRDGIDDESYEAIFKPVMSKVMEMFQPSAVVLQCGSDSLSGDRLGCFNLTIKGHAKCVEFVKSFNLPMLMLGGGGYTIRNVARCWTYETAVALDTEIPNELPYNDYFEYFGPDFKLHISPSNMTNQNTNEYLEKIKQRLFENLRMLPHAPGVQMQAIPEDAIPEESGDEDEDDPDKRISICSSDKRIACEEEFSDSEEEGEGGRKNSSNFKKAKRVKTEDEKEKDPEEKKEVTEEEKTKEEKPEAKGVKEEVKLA

C[C@@H](Oc1cc(C(=O)Nc2ccc(C(=O)N3CCN(C)CC3)cc2)nnc1N)c1c(Cl)ccc(F)c1Cl
IC50 (NCI-H3122): 77 nM

COc1cc2nccc(Oc3ccc(Nc4nccc5ccn(-c6ccc(C)cc6)c(=O)c45)cc3F)c2cc1OC
IC50 [1]: 17.2 nM

Nc1ccccc1NC(=O)c1ccc(OCCCOc2ccc3c(OCCn4nc(-c5cn[nH]c5)ccc4=O)ccnc3c2)cn1
IC50 (Histone deacetylase 1): 38 nM | IC50 [2]: 0.71 nM

COCCN1CCN(C(=O)C#Cc2c(Oc3ccc(NC(=O)c4ccnn(-c5ccc(F)cc5)c4=O)cc3F)ccnc2N)CC1
IC50 (HCC827): < 100 nM

COCCN1CCN(C(=O)C#Cc2c(Oc3ccc(NC(=O)c4cn(C(C)C)c(=O)n(-c5ccc(F)cc5)c4=O)cc3F)ccnc2N)CC1
IC50 (HCC827): < 100 nM

Fc1ccc(Cl)c(Sc2n[nH]c3ncc(-c4cnn(C5CCNCC5)c4)cc23)c1Cl
IC50 [3]: 14.6 nM

CC(C)N1CCC(CC#Cc2c(Oc3ccc(NC(=O)c4cn(C(C)C)c(=O)n(-c5ccc(F)cc5)c4=O)cc3F)ccnc2N)CC1
IC50 (HCC827): < 100 nM

c1coc(COCC2Cc3cn4ncnc(-c5cnn(C6CCNCC6)c5)c4c3C2)c1 (stereo not given)
IC50 [4]: 0.33 nM | IC50 (A-431): 699 nM | IC50 (NCI-H1975): 1.3 nM

Clc1ncccc1COCC1Cc2cn3ncnc(-c4cnn(C5CCNCC5)c4)c3c2C1 (stereo not given)
IC50 [4]: 1.88 nM | IC50 (A-431): > 1000 nM | IC50 (NCI-H1975): 39.2 nM

COc1cc2c(c(OC)c1OC)-c1ccc(OC)c(=O)cc1[C@@H](NC(C)=O)CC2 [COLCHICINE]
IC50 (KB 3-1): 1900 nM

N#CC1=C(N)OC2=C(c3sc(N)c(C#N)c3CC2)C1c1ccccc1 (stereo not given)
IC50 [3]: 8.32 nM

c1cncc(COCC2Cc3cn4ncnc(-c5cnn(C6CCNCC6)c5)c4c3C2)c1 (stereo not given)
IC50 [4]: 1.59 nM | IC50 (A-431): > 1000 nM | IC50 (NCI-H1975): 45.2 nM

Cc1nc(Cn2cc(C(=O)Nc3ccc(Oc4ccnc(N)c4C#CCC4CCN(C)CC4)c(F)c3)c(=O)n(-c3ccc(F)cc3)c2=O)cs1
IC50 (HCC827): < 100 nM

Cc1ccc(C(=O)Nc2cccc(C(=O)/C=C/c3ccc(F)cc3)c2)cc1
IC50 [5]: 1620 nM | IC50 (MCF7): 15700 nM | IC50 (HT-29): 10400 nM | IC50 (MDA-MB-231 [6]): 7930 nM | IC50 (A549 [7]): 37000 nM | IC50 (COLO 205): < 100 nM | IC50 [3]: 6610 nM

CC(C)n1cc(C(=O)Nc2ccc(Oc3ccnc(N)c3C#CC(=O)N3CCOCC3)c(F)c2)c(=O)n(-c2ccc(F)cc2)c1=O
IC50 (HCC827): < 100 nM

COc1cc2nc(N3CCN(C(=O)C4COc5ccccc5O4)CC3)nc(N)c2cc1OC (stereo not given) [DOXAZOSIN]
IC50 (MDA-MB-231 [8]): 23900 nM | IC50 (BT-549): 24800 nM | IC50 (4T1): 7730 nM

CN1CCc2ccc(COCC3Cc4cn5ncnc(-c6cnn(C7CCNCC7)c6)c5c4C3)cc21 (stereo not given)
IC50 [4]: 20.3 nM | IC50 (A-431): 749 nM | IC50 (NCI-H1975): 84.3 nM

COCCN1CCN(C(C)(C)C#Cc2c(Oc3ccc(NC(=O)c4cn(C(C)C)c(=O)n(-c5ccc(F)cc5)c4=O)cc3F)ccnc2N)CC1
IC50 (HCC827): < 100 nM

CNC(=O)c1ccccc1Nc1nc(Nc2ccc3c(c2)[C@@H](C)CNCC3)ncc1Cl
IC50 [4]: 7.9 nM | IC50 [3]: 6.4 nM

COCCN1CCC(C#Cc2c(Oc3ccc(NC(=O)c4cn(C(C)C)c(=O)n(-c5ccc(F)cc5)c4=O)cc3F)ccnc2N)CC1
IC50 (HCC827): < 100 nM

CC(C)n1cc(C(=O)Nc2ccc(Oc3ccnc4c3Oc3ccccc3N4)c(F)c2)c(=O)c(-c2ccc(F)cc2)c1
IC50 [1]: 7 nM

Nc1nccc(Oc2ccc(NC(=O)c3ccnn(-c4ccc(F)cc4)c3=O)cc2F)c1C#CCC1CCNCC1
IC50 (HCC827): < 100 nM | IC50 [3]: 10 nM

Cc1c(C(=O)Nc2ccc(Oc3ccnc4cc(OCC(C)(C)O)ccc34)c(F)c2)c(=O)n(-c2ccccc2)n1C [NINGETINIB]
IC50 [3]: 33.4 nM

C=CC(=O)Nc1cc2c(Oc3ccc(NC(=O)c4c(C)n(C)n(-c5ccccc5)c4=O)cc3F)ncnc2cc1OC
IC50 (A549 [9]): 1060 nM | IC50 (PC-9): 1050 nM

CC(C)n1cc(C(=O)Nc2ccc(Oc3ccnc(N)c3C#CC(=O)N3CCNCC3)c(F)c2)c(=O)n(-c2ccc(F)cc2)c1=O
IC50 (HCC827): < 100 nM

CN1CCN(CC#Cc2c(Oc3ccc(NC(=O)c4ccnn(-c5ccc(F)cc5)c4=O)cc3F)ccnc2N)CC1
IC50 (HCC827): < 100 nM

Cn1cc(-c2cc3c(Oc4ccc(NC(=O)C5(C(=O)Nc6ccc(F)cc6)CC5)cc4)ncnn3c2)cn1
IC50 [1]: 26 nM

COCCNCc1ccc(-c2cc3nccc(Oc4ccc(NC(=S)NC(=O)Cc5ccc(F)cc5)cc4F)c3s2)nc1 [GLESATINIB]
IC50 (KB 3-1): 4 nM

COc1cc2nccc(Oc3ccc(Nc4nccc5ccn(-c6ccc(Br)cc6)c(=O)c45)cc3F)c2cc1OC
IC50 [1]: > 1000 nM

COc1cccc2c1C(=O)c1c(O)c3c(c(O)c1C2=O)C[C@@](O)(C(=O)CO)C[C@@H]3O[C@H]1C[C@H](N)[C@H](O)[C@H](C)O1 [DOXORUBICIN]
IC50 (KB 3-1): 6 nM

C[C@@H](Oc1cc(C(=O)Nc2ccc(=O)n(C)c2)nnc1N)c1c(Cl)ccc(F)c1Cl
IC50 [4]: 60 nM | IC50 [3]: 40 nM

COCCN1CCC(C#Cc2c(Oc3ccc(NC(=O)c4ccnn(-c5ccc(F)cc5)c4=O)cc3F)ccnc2N)CC1
IC50 (HCC827): < 100 nM

CC(C)n1cc(C(=O)Nc2ccc(Oc3ccnc(N)c3C#CC(C)(C)N3CCOCC3)c(F)c2)c(=O)n(-c2ccc(F)cc2)c1=O
IC50 (HCC827): < 100 nM

Fc1ccc(Cl)c(COCC2Cc3cn4ncnc(-c5cnn(C6CCNCC6)c5)c4c3C2)c1Cl (stereo not given)
IC50 [4]: 0.24 nM | IC50 (A-431): 100 nM | IC50 (NCI-H1975): 6.21 nM

c1ccc2oc(COCC3Cc4cn5ncnc(-c6cnn(C7CCNCC7)c6)c5c4C3)cc2c1 (stereo not given)
IC50 (A-431): > 1000 nM | IC50 (NCI-H1975): 60 nM

CC(=O)O[C@H]1C(=O)[C@@]2(C)[C@H]([C@H](OC(=O)c3ccccc3)[C@]3(O)C[C@H](OC(=O)[C@H](O)[C@@H](NC(=O)c4ccccc4)c4ccccc4)C(C)=C1C3(C)C)[C@]1(OC(C)=O)CO[C@@H]1C[C@@H]2O [PACLITAXEL]
IC50 (KB 3-1): 29 nM

COc1cc(N2CCNC[C@@H]2C)ncc1-c1cnc(N)c(O[C@H](C)c2c(Cl)ccc(F)c2Cl)c1 [ENVONALKIB]
IC50 [10]: 14.3 nM

O=C(/C=C/c1ccc(F)cc1)c1cccc(NC(=O)c2ccc(Cl)cc2)c1
IC50 [5]: 2430 nM | IC50 (MCF7): 7070 nM | IC50 (HT-29): 13600 nM | IC50 (MDA-MB-231 [6]): 43000 nM | IC50 (A549 [7]): 43800 nM | IC50 (COLO 205): < 100 nM | IC50 [3]: 7900 nM

O=C(Nc1ccc(F)cc1)C1(C(=O)Nc2ccc(Oc3ncnn4cc(-c5cnn(CCO)c5)cc34)cc2)CC1
IC50 [1]: 8.6 nM

O=C(Nc1cccc(-c2nc(-c3ccc(NC(=O)c4cccnc4)cc3Cl)no2)c1)Nc1ccc(NC(=O)C2CC2)c(C(F)(F)F)c1
IC50 [11]: 500 nM
